{"source": "patent US9862684B2", "about": "“Modulation of K2P channels” (The Regents of the University of California, priority 2013, dated 2018)", "key": {"K2P2.1 (TREK-1)": {"target": "T1, K2P2.1 (TREK-1) (Mus musculus, UniProt P97438)", "T1 construct": "expressed in transfected cells; host or cells: Xenopus oocytes (cRNA injection, pGEMHE/pMO)", "T1 sequence (P97438 1-411 isoform P97438-2)": "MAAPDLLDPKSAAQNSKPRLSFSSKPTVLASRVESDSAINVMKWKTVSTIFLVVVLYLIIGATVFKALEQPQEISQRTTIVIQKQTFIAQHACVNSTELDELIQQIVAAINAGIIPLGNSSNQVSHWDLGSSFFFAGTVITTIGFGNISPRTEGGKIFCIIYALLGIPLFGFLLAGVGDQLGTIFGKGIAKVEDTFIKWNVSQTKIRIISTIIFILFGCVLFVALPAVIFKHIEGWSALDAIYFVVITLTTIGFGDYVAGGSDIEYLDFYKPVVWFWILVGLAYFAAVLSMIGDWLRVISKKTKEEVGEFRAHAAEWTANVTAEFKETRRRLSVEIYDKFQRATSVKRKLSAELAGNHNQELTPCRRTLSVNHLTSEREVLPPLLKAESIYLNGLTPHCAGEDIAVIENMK", "assay": "Two-electrode voltage clamp of Xenopus oocytes expressing K2P2.1 (TREK-1)", "format": "cell-based, Murine", "description": "Two-electrode voltage clamp recordings were performed from defolliculated stage V-VI Xenopus oocytes 24-48 hours after injection with 0.015-6.0 ng cRNA, using microelectrodes (0.3-3.0 MΩ) filled with 3M KCl. […] Recording solutions (mM): 2K (96 NaCl, 2 KCl, 1.8 CaCl2, 2 MgCl2), 90K (90 KCl, 8 NaCl, 1.8 CaCl2, 2 MgCl2), were buffered 5 mM HEPES pH 7.4. For K2P recordings, currents we elicited by a 1 second long ramp from −150 to +50 mV from a holding potential of −80 mV (2K), or −100 to +50 mV from a holding potential of 0 mV (90K). For KCNQ2 recordings, currents were elicited by a step protocol from −120 to 60 mV, in 20 mV increments, from a holding potential of −80 mV. […] Currents were elicited by a 1 second long ramp from −150 to +50 mV from a holding potential of −80 mV."}, "K2P2.1 (TREK-1)-3G [1]": {"target": "T2, K2P2.1 (TREK-1)-3G (Mus musculus, UniProt P97438, D309G/I307G)", "T2 sequence (P97438 1-426 I307G/D309G)": "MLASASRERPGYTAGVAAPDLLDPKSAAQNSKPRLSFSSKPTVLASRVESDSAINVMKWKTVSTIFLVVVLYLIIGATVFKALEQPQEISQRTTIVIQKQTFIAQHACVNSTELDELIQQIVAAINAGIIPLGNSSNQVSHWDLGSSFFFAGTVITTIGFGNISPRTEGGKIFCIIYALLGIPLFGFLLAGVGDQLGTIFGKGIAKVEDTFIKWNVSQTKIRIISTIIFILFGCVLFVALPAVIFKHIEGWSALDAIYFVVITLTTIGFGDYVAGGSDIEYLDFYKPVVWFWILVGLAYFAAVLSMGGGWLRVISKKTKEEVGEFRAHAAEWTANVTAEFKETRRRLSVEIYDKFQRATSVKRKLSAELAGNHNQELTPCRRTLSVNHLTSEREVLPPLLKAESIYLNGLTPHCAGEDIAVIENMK", "assay": "Two-electrode voltage clamp, Xenopus oocytes, triple glycine mutant uncoupling Ct", "format": "cell-based, Murine", "conditions": "3G mutant", "description": "(§1) I-V curves were measured by two-electrode voltage clamp of Xenopus oocytes in b, 90 mM [K^+]o. or c-e, 2 mM [K^+]o. […] Data (were measured at 20 mV (90 mM [K^+]o) or 0 mV (2 mM [K^+]o), normalized to basal channel activity, and fitted to the Hill equation. Error bars indicate s.e., n≧6, N≧2.\n(§2) Murine K2P channels were cloned into pGEMHE/pMO {Bagriantsev, 2011}, IRES-GFP (Invitrogen), or pYES2-MET25 (high copy 2μ, URA3) {Minor, 1999} for expression in oocytes, HEK-293T cells, and yeast, respectively, using standard molecular biology procedures, and verified by DNA sequencing.\n(§3) Two-electrode voltage clamp recordings were performed from defolliculated stage V-VI Xenopus oocytes 24-48 hours after injection with 0.015-6.0 ng cRNA, using microelectrodes (0.3-3.0 MΩ) filled with 3M KCl. Data was acquired using the GeneClamp 500B (MDS Analytical Technologies) amplifier controlled by the pClamp software (Molecular Devices), and digitized at 1 kHz using Digidata 1332A (MDS Analytical Technologies). Recording solutions (mM): 2K (96 NaCl, 2 KCl, 1.8 CaCl2, 2 MgCl2), 90K (90 KCl, 8 NaCl, 1.8 CaCl2, 2 MgCl2), were buffered 5 mM HEPES pH 7.4. For K2P recordings, currents we elicited by a 1 second long ramp from −150 to +50 mV from a holding potential of −80 mV (2K), or −100 to +50 mV from a holding potential of 0 mV (90K). […]"}, "K2P2.1 (TREK-1)-3G [2]": {"target": "T3, K2P2.1 (TREK-1)-3G (Mus musculus, UniProt P97438, I307G/D309G)", "T3 sequence (P97438 1-426 I307G/D309G)": "T2 sequence (P97438 1-426 I307G/D309G)", "assay": "Two-electrode voltage clamp, Xenopus oocytes, triple glycine mutant uncoupling Ct", "format": "cell-based, Murine", "conditions": "3G mutant", "description": "as §1, §2, §3"}, "Solubility (remarks)": {"assay": "Solubility (remarks)", "format": "physicochemical"}}, "note": "Where two headings read alike, the source gives them in different places."}
{"smiles": "CC1(C)c2cc(Cl)ccc2N(CCc2nnn[nH]2)c2ccc(Cl)cc21", "note": "[ML67-33, 2,7-dichloro-9,9-dimethyl-10-[2-(1H-tetrazol-5-yl)ethyl]acridine]", "values": [{"measurement": "EC50", "setting": "K2P2.1 (TREK-1); Xenopus oocytes, 2 mM [K+]o pH 7.4, data at 0 mV, normalized to basal activity, Hill fit, read-out: EC50", "result": "36.3 ± 1.04", "unit": "µM"}, {"measurement": "Emax (fold) at 100 μM", "setting": "K2P2.1 (TREK-1); Xenopus oocytes, at 100 μM (FIG. 4, 7 legends), marked ** in Table 1, footnote not given", "result": "11.1±0.4", "unit": "fold"}, {"measurement": "Emax (fold)", "setting": "K2P2.1 (TREK-1); Xenopus oocytes, fold over basal current, no concentration stated", "result": "11.1 ± 0.4", "unit": "fold"}, {"measurement": "response of K2P2.1 (TREK-1) to ML67-33 with C-type gate stabilized (in words)", "setting": "K2P2.1 (TREK-1); high extracellular potassium, 90 mM [K+]o", "result": "reduced the response"}, {"measurement": "EC50", "setting": "K2P2.1 (TREK-1); spans oocytes and HEK cells, read-out: concentration at which the compound acts (EC50 range)", "result": "9.7 to 36.3", "unit": "µM"}, {"measurement": "EC50", "setting": "K2P2.1 (TREK-1)-3G [1]", "result": "49.4 ± 0.1", "unit": "µM"}, {"measurement": "Emax (fold)", "setting": "K2P2.1 (TREK-1)-3G [2]", "result": "12.9±1.0", "unit": "fold"}, {"measurement": "solubility (in words)", "setting": "Solubility (remarks)", "result": "favorable solubility properties"}]}
